Patent US10098938B2, “Peptides and combination of peptides for use in immunotherapy against various cancers” (immatics biotechnologies GmbH, priority 2015, dated 2018)

The substances below were run on CD8+ T cells (assay: In vitro immunogenicity: T-cell priming with aAPCs loaded with peptide/MHC and anti-CD28, pMHC multimer readout). Conditions: in vitro immunogenicity of HLA class I peptides; CD8+ T cells of healthy donors, three stimulation cycles, multimer staining.
Assay type: cell-based, human
From the text: In order to obtain information regarding the immunogenicity of the TUMAPs of the present invention, the inventors performed investigations using an in vitro T-cell priming assay based on repeated stimulations of CD8+ T cells with artificial antigen presenting cells (aAPCs) loaded with peptide/MHC complexes and anti-CD28 antibody.
In order to perform in vitro stimulations by artificial antigen presenting cells loaded with peptide-MHC complex (pMHC) and anti-CD28 antibody, the inventors first isolated CD8+ T cells from fresh HLA-A*02 leukapheresis products via positive selection using CD8 microbeads (Miltenyi Biotec, Bergisch-Gladbach, Germany) of healthy donors obtained from the University clinics Mannheim, Germany, after informed consent.
PBMCs and isolated CD8+ lymphocytes were incubated in T-cell medium (TCM) until use consisting of RPMI-Glutamax (Invitrogen, Karlsruhe, Germany) supplemented with 10% heat inactivated human AB serum (PAN-Biotech, Aidenbach, Germany), 100 U/ml Penicillin/100 μg/ml Streptomycin (Cambrex, Cologne, Germany), 1 mM sodium pyruvate (CC Pro, Oberdorla, Germany), 20 μg/ml Gentamycin (Cambrex). 2.5 ng/ml IL7 (PromoCell, Heidelberg, Germany) and 10 U/ml IL-2 (Novartis Pharma, Nürnberg, Germany) were also added to the TCM at this step.
Generation of pMHC/anti-CD28 coated beads, T-cell stimulations and readout was performed in a highly defined in vitro system using four different pMHC molecules per stimulation condition and 8 different pMHC molecules per readout condition.
The purified co-stimulatory mouse IgG2a anti human CD28 Ab 9.3 (Jung et al., 1987) was chemically biotinylated using Sulfo-N-hydroxysuccinimidobiotin as recommended by the manufacturer (Perbio, Bonn, Germany). Beads used were 5.6 μm diameter streptavidin coated polystyrene particles (Bangs Laboratories, Illinois, USA).
pMHC used for positive and negative control stimulations were A*0201/MLA-001 (peptide […] (SEQ ID NO. 303) from modified Melan-A/MART-1) and A*0201/DDX5-001 ([…] from DDX5, SEQ ID NO. 304), respectively.
800.000 beads/200 μl were coated in 96-well plates in the presence of 4×12.5 ng different biotin-pMHC, washed and 600 ng biotin anti-CD28 were added subsequently in a volume of 200 μl. Stimulations were initiated in 96-well plates by co-incubating […] CD8+ T cells with 2×10^5 washed coated beads in 200 μl TCM supplemented with 5 ng/ml IL-12 (PromoCell) for 3 days at 37° C. Half of the medium was then exchanged by fresh TCM supplemented with 80 U/ml IL-2 and incubating was continued for 4 days at 37° C. This stimulation cycle was performed for a total of three times. For the pMHC multimer readout using 8 different pMHC molecules per condition, a two-dimensional combinatorial coding approach was used as previously described (Andersen et al., 2012) with minor modifications encompassing coupling to 5 different fluorochromes. Finally, multimeric analyses were performed by staining the cells with Live/dead near IR dye (Invitrogen, Karlsruhe, Germany), CD8-FITC antibody clone SK1 (BD, Heidelberg, Germany) and fluorescent pMHC multimers. For analysis, a BD LSRII SORP cytometer equipped with appropriate lasers and filters was used. Peptide specific cells were calculated as percentage of total CD8+ cells. Evaluation of multimeric analysis was done using the FlowJo software (Tree Star, Oregon, USA). In vitro priming of specific multimer+ CD8+ lymphocytes was detected by comparing to negative control stimulations.

Question: How did the Wells turn out when “291 (KLDETGNSL; listed as Homo sapiens) [compound 291]” was run?
Answer: + (<20% = +)

Same assay, conditions: in vitro immunogenicity of HLA class I peptides; pMHC multimer readout after T-cell priming

Question: For “5 (GIVAHIQEV; listed as Homo sapiens) [compound 5]”, which “Wells positive [%]” value is on record?
Answer: + (<20% = +)

Question: Which “Wells positive [%]” value does the source give for “18 (ILLDLTDNRL; listed as Homo sapiens) [compound 18]” here?
Answer: + (<20% = +)

Question: Which “Wells positive [%]” value does the source give for “23 (SLFSDEFKV; listed as Homo sapiens) [compound 23]” here?
Answer: ++++ (> = 70% = ++++)

Question: For “26 (ALQEELTEL; listed as Homo sapiens) [compound 26]”, which “Wells positive [%]” value is on record?
Answer: + (<20% = +)

Question: How did the “Wells positive [%]” value turn out when “29 (YLLDPSITL; listed as Homo sapiens) [compound 29]” was run?
Answer: + (<20% = +)

Question: “31 (TITETTVEV; listed as Homo sapiens) [compound 31]” was tested. Which “Wells positive [%]” value did it give?
Answer: + (<20% = +)

Question: For “35 (FLLPFSTVYL; listed as Homo sapiens) [compound 35]”, which “Wells positive [%]” value is on record?
Answer: + (<20% = +)

Question: “90 (FLQDLEQRL; listed as Homo sapiens) [compound 90]” was tested. Which “Wells positive [%]” value did it give?
Answer: + (<20% = +)

Question: “141 (FLDKVLVAA; listed as Homo sapiens) [compound 141]” was tested. Which “Wells positive [%]” value did it give?
Answer: + (<20% = +)

Question: “149 (ILNTHITEL; listed as Homo sapiens) [compound 149]” was tested. Which “Wells positive [%]” value did it give?
Answer: + (<20% = +)

Question: Which “Wells positive [%]” value does the source give for “196 (LYIDRPLPYL; listed as Homo sapiens) [compound 196]” here?
Answer: ++++ (> = 70% = ++++)

Question: How did the “Wells positive [%]” value turn out when “197 (EYSLFPGQVVI; listed as Homo sapiens) [compound 197]” was run?
Answer: + (<20% = +)

Question: Which “Wells positive [%]” value does the source give for “207 (AYVVFVSTL; listed as Homo sapiens) [compound 207]” here?
Answer: + (<20% = +)

Question: How did the “Wells positive [%]” value turn out when “218 (YYKSTSSAF; listed as Homo sapiens) [compound 218]” was run?
Answer: + (<20% = +)

Question: “230 (KLQNIMMLL; listed as Homo sapiens) [compound 230]” was tested. Which “Wells positive [%]” value did it give?
Answer: ++++ (> = 70% = ++++)

Question: How did the “Wells positive [%]” value turn out when “268 (QYLGQIQHI; listed as Homo sapiens) [compound 268]” was run?
Answer: + (<20% = +)

Question: How did the “Wells positive [%]” value turn out when “269 (YFIDSTNLKTHF; listed as Homo sapiens) [compound 269]” was run?
Answer: + (<20% = +)

Question: Which “Wells positive [%]” value does the source give for “285 (HYPPVQVLF; listed as Homo sapiens) [compound 285]” here?
Answer: + (<20% = +)

These substances were tested on HLA-A*24 (assay: MHC binding assay, UV-ligand exchange with β2m ELISA, HLA-A*24). Conditions: binding to HLA-A*24 ranged by peptide exchange yield.
Design: species or system human
From the text: Candidate peptides for T cell based therapies according to the present invention were further tested for their MHC binding capacity (affinity). The individual peptide-MHC complexes were produced by UV-ligand exchange, where a UV-sensitive peptide is cleaved upon UV-irradiation, and exchanged with the peptide of interest as analyzed. Only peptide candidates that can effectively bind and stabilize the peptide-receptive MHC molecules prevent dissociation of the MHC complexes. To determine the yield of the exchange reaction, an ELISA was performed based on the detection of the light chain (β2m) of stabilized MHC complexes. The assay was performed as generally described in Rodenko et al. (Rodenko et al., 2006).
96 well MAXISorp plates (NUNC) were coated over night with 2 ug/ml streptavidin in PBS at room temperature, washed 4× and blocked for 1 h at 37° C. in 2% BSA containing blocking buffer. Refolded HLA-A*02:01/MLA-001 monomers served as standards, covering the range of 15-500 ng/ml. Peptide-MHC monomers of the UV-exchange reaction were diluted 100 fold in blocking buffer. Samples were incubated for 1 h at 37° C., washed four times, incubated with 2 ug/ml HRP conjugated anti-β2m for 1 h at 37° C., washed again and detected with TMB solution that is stopped with […]. Absorption was measured at 450 nm. Candidate peptides that show a high exchange yield (preferably higher than 50%, most preferred higher than 75%) are generally preferred for a generation and production of antibodies or fragments thereof, and/or T cell receptors or fragments thereof, as they show sufficient avidity to the MHC molecules and prevent dissociation of the MHC complexes.

Question: Which Peptide exchange does the source give for “160 (VYTLDIPVL; listed as Homo sapiens) [compound 160]” here?
Answer: ++++ (> = 75% = ++++)

Question: How did the Peptide exchange turn out when “161 (IYLVSIPEL; listed as Homo sapiens) [compound 161]” was run?
Answer: ++++ (> = 75% = ++++)

Question: With “166 (YYVESGKLF; listed as Homo sapiens) [compound 166]” as the substance, how does the Peptide exchange read?
Answer: ++++ (> = 75% = ++++)

Question: Which Peptide exchange does the source give for “168 (KYQDILETI; listed as Homo sapiens) [compound 168]” here?
Answer: ++++ (> = 75% = ++++)

Question: Which Peptide exchange does the source give for “172 (TYTTVPRVAF; listed as Homo sapiens) [compound 172]” here?
Answer: ++++ (> = 75% = ++++)

Question: Which Peptide exchange does the source give for “173 (IYSWILDHF; listed as Homo sapiens) [compound 173]” here?
Answer: ++++ (> = 75% = ++++)

Question: With “175 (YYEVHKELF; listed as Homo sapiens) [compound 175]” as the substance, how does the Peptide exchange read?
Answer: ++++ (> = 75% = ++++)

Question: Which Peptide exchange does the source give for “177 (VYPWLGALL; listed as Homo sapiens) [compound 177]” here?
Answer: ++++ (> = 75% = ++++)

Question: Which Peptide exchange does the source give for “179 (MYDSYWRQF; listed as Homo sapiens) [compound 179]” here?
Answer: ++++ (> = 75% = ++++)

Question: “181 (LYLDIINLF; listed as Homo sapiens) [compound 181]” was tested. Which Peptide exchange did it give?
Answer: ++++ (> = 75% = ++++)

Question: Which Peptide exchange does the source give for “184 (VFQNFPLLF; listed as Homo sapiens) [compound 184]” here?
Answer: ++++ (> = 75% = ++++)

Question: For “186 (IFPQFLYQF; listed as Homo sapiens) [compound 186]”, which Peptide exchange is on record?
Answer: ++++ (> = 75% = ++++)

Question: Which Peptide exchange does the source give for “187 (TYLRDQHFL; listed as Homo sapiens) [compound 187]” here?
Answer: ++++ (> = 75% = ++++)

Question: How did the Peptide exchange turn out when “192 (SYALLTYMI; listed as Homo sapiens) [compound 192]” was run?
Answer: ++++ (> = 75% = ++++)

Question: “193 (RFHPTPLLL; listed as Homo sapiens) [compound 193]” was tested. Which Peptide exchange did it give?
Answer: ++++ (> = 75% = ++++)

Question: With “194 (EFGSLHLEFL; listed as Homo sapiens) [compound 194]” as the substance, how does the Peptide exchange read?
Answer: + (<20% = +)

Question: How did the Peptide exchange turn out when “195 (TYSVSFPMF; listed as Homo sapiens) [compound 195]” was run?
Answer: ++++ (> = 75% = ++++)

Question: With “202 (VYWDSAGAAHF; listed as Homo sapiens) [compound 202]” as the substance, how does the Peptide exchange read?
Answer: ++++ (> = 75% = ++++)

Question: Which Peptide exchange does the source give for “210 (IYTMIYRNL; listed as Homo sapiens) [compound 210]” here?
Answer: ++++ (> = 75% = ++++)

Question: “211 (YYLEVGKTLI; listed as Homo sapiens) [compound 211]” was tested. Which Peptide exchange did it give?
Answer: ++++ (> = 75% = ++++)

Question: Which Peptide exchange does the source give for “216 (QYSSVFKSL; listed as Homo sapiens) [compound 216]” here?
Answer: ++++ (> = 75% = ++++)

Question: With “217 (FFPPTRQMGLLF; listed as Homo sapiens) [compound 217]” as the substance, how does the Peptide exchange read?
Answer: ++++ (> = 75% = ++++)

Question: How did the Peptide exchange turn out when “227 (IFLDYEAGTLSF; listed as Homo sapiens) [compound 227]” was run?
Answer: ++++ (> = 75% = ++++)

Question: With “228 (KYTSWYVAL; listed as Homo sapiens) [compound 228]” as the substance, how does the Peptide exchange read?
Answer: ++++ (> = 75% = ++++)

Question: For “267 (KYMVYPQTF; listed as Homo sapiens) [compound 267]”, which Peptide exchange is on record?
Answer: ++++ (> = 75% = ++++)

Question: Which Peptide exchange does the source give for “271 (LYHDIFSRL; listed as Homo sapiens) [compound 271]” here?
Answer: ++++ (> = 75% = ++++)

Question: How did the Peptide exchange turn out when “272 (QYLQDAYSF; listed as Homo sapiens) [compound 272]” was run?
Answer: ++++ (> = 75% = ++++)

Question: For “274 (AYLHSHALI; listed as Homo sapiens) [compound 274]”, which Peptide exchange is on record?
Answer: ++++ (> = 75% = ++++)

Question: How did the Peptide exchange turn out when “276 (VYGFQWRHF; listed as Homo sapiens) [compound 276]” was run?
Answer: ++++ (> = 75% = ++++)

Question: For “277 (VYQGHTALL; listed as Homo sapiens) [compound 277]”, which Peptide exchange is on record?
Answer: ++++ (> = 75% = ++++)

Question: With “278 (RYISDQLFTNF; listed as Homo sapiens) [compound 278]” as the substance, how does the Peptide exchange read?
Answer: ++++ (> = 75% = ++++)

Question: How did the Peptide exchange turn out when “280 (RYPDNLKHLYL; listed as Homo sapiens) [compound 280]” was run?
Answer: ++++ (> = 75% = ++++)

Question: Which Peptide exchange does the source give for “282 (KFVDSTFYL; listed as Homo sapiens) [compound 282]” here?
Answer: ++++ (> = 75% = ++++)

Question: With “289 (KYPVEWAKF; listed as Homo sapiens) [compound 289]” as the substance, how does the Peptide exchange read?
Answer: ++++ (> = 75% = ++++)
